In this assay the test system is Klebsiella pneumoniae. Description: Checkerboard growth inhibition (turbidity at 590 nm) with Kull synergism index. The format is cell-based. How it is done:
Glutaraldehyde and DBNPA were added in varying ratios over a wide range of concentrations to a liquid nutrient medium which was subsequently inoculated with a standard volume of a suspension of the facultative bacterium Klebsiella pneumoniae. Growth was measured by turbidity at 590 nm in a microplate spectrophotometer. The effect of the biocide chemicals, alone and in combination, is to reduce the growth (turbidity) of the bacterial cells as compared to controls not treated with the chemicals. Additions of the biocides, alone and in varying combinations and concentrations, were made according to the accepted “checkerboard” technique described by M. T. Kelly and J. Matsen, Antimicrobial Agents and Chemotherapy. 9:440 (1976). Growth was measured after overnight incubation at 30° C. Each unique sample concentration was tested in triplicate. The percent reduction of each treated sample was calculated from the relationship: [formula]
Plotting the % reduction of turbidity against the concentration of each biocide acting alone results in a dose-response curve, from which the biocide dose necessary to achieve a given % reduction can be interpolated.
Synergism was determined by the method of calculation described by F. C. Kull, P. C. Eisman, H. D. Sylwestrowicz and R. L. Mayer, Applied Microbiology, 9:538 (1961) using the relationship:
(QA/Qa)+(QB/Qb)=Synergism Index (SI)
Qa=quantity of compound A, acting alone, producing an end point
Qb=quantity of compound B, acting alone, producing an end point
QA=quantity of compound A, in mixture, producing an end point
QB=quantity of compound B, in mixture, producing an end point
The end point used in the calculations is the % reduction caused by each mixture of A and B. QA and QB are the individual concentrations in the A/B mixture causing a given % reduction. QA and QB are determined by interpolation from the respective dose-response curves of A and B as those concentrations of A and B acting alone which produce the same % reduction as each specific mixture produced.
Dose-response curves for each active acting alone were determined by linear regression analysis of dose-response data. Data were fitted to a curve represented by the equation shown with each data set. After linearizing the data, the contributions of each biocide component in the biocide mixtures to the inhibition of turbidity were determined by a linear regression method with the dose-response curve of the respective biocide. If, for example, quantities of QA and QB are sufficient to give a 50% reduction in turbidity, Qa and Qb are those quantities of A and B acting alone respectively, found to give 50% reduction in turbidity. A synergism index (SI) is calculated for each combination of A and B.
Where the SI is less than 1, synergism exists. Where the SI=1, additivity exists. Where SI is greater than 1, antagonism exists.
The data in the following tables come from treating Klebsiella pneumoniae, a common nuisance bacterial type found in industrial cooling waters and in pulping and paper making systems, with varying ratios and concentrations of glutaraldehyde and DBNPA. Shown for each combination is the % reduction of turbidity (%I), the calculated SI, and the weight ratio of glutaraldehyde and DBNPA.

As for `N#CC(Br)(Br)C(N)=O` [DBNPA, 2,2-dibromo-3-nitrilopropionamide], the “% I (% reduction of turbidity)” value (Table I, DBNPA 3.2 ppm alone) was 60%; the “% I (% reduction of turbidity)” value (Table I, DBNPA 6.3 ppm alone) is listed as 62%; the “% I (% reduction of turbidity)” value (Table I, DBNPA 12.5 ppm alone) is reported as 65%; the “% I (% reduction of turbidity)” value (Table I, DBNPA 25 ppm alone) is reported as 72%; the “% I (% reduction of turbidity)” value (Table I, DBNPA 50 ppm alone) was 86%; the “% I (% reduction of turbidity)” value (Table I, DBNPA 100 ppm alone) was 100%. Further, the “% I (% reduction of turbidity)” value is given as 84% (Table II, DBNPA 3.2 ppm alone); 85% (Table II, DBNPA 6.3 ppm alone); 87% (Table II, DBNPA 12.5 ppm alone); 89% (Table II, DBNPA 25 ppm alone); 95% (Table II, DBNPA 50 ppm alone); 100% (Table II, DBNPA 100 ppm alone).
As to `O=CCCCC=O` [Glutaraldehyde, glutaraldehyde], the “% I (% reduction of turbidity)” value runs as follows: (Table I, Glutaraldehyde 9.4 ppm alone) 0%; (Table I, Glutaraldehyde 18.8 ppm alone) 0%; (Table I, Glutaraldehyde 37.5 ppm alone) 6%; (Table I, Glutaraldehyde 75 ppm alone) 22%; (Table I, Glutaraldehyde 150 ppm alone) 53%; (Table I, Glutaraldehyde 300 ppm alone) 100%. The “% I (% reduction of turbidity)” value by setting is: (Table II, Glutaraldehyde 9.4 ppm alone) 2%; (Table II, Glutaraldehyde 18.8 ppm alone) 6%; (Table II, Glutaraldehyde 37.5 ppm alone) 13%; (Table II, Glutaraldehyde 75 ppm alone) 28%; (Table II, Glutaraldehyde 150 ppm alone) 58%; (Table II, Glutaraldehyde 300 ppm alone) 100%.

The record behind these values is patent US6369104B1, “Biocidal compositions and use thereof containing a synergistic mixture of glutaraldehyde and 2,2-dibromo-3 nitrilo propionamide” (Hercules Incorporated, priority 2000, dated 2002).
